Assay results reported in PMC3824154 (Angewandte Chemie (International ed. in English), 2013).

Biological target: T1, MBP-RebF (Lentzea aerocolonigenes, UniProt Q8KI76)
T1 sequence (Q8KI76 1-170): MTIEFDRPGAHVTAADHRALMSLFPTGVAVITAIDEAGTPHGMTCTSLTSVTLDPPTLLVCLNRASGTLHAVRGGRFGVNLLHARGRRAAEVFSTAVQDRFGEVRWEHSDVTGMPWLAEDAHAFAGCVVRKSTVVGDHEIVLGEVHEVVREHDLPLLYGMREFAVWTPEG
Experiment: FAD reduction activity
Type: biochemical

Cc1cc2nc3c(=O)[nH]c(=O)nc-3n(C[C@H](O)[C@H](O)[C@H](O)COP(=O)(O)OP(=O)(O)OC[C@H]3O[C@@H](n4cnc5c(N)ncnc54)[C@H](O)[C@@H]3O)c2cc1C [FAD]
FAD reduction activity (turnover) (NADH as electron donor): retained high activity for the NAD-dependent reduction of FAD to FADH2

NC(=O)C1=CN([C@@H]2O[C@H](COP(=O)(O)OP(=O)(O)OC[C@H]3O[C@@H](n4cnc5c(N)ncnc54)[C@H](O)[C@@H]3O)[C@@H](O)[C@H]2O)C=CC1 [NADH]
FAD reduction activity (turnover) (FAD as electron acceptor): MBP-RebF, which uses NADH to reduce FAD to FADH2
